Assay results reported in US8362065B2, “Carbazole carboxamide compounds useful as kinase inhibitors” (Bristol-Myers Squibb Company, priority 2008, dated 2013).
Where a name gives a salt, the structure may show the parent alone.

Target: T1, human recombinant Btk (Homo sapiens, UniProt Q06187)
T1 construct: purchased Invitrogen Corporation
Test: Human Recombinant Btk Enzyme Assay
Type: biochemical
Conditions: human recombinant Btk 1 nM, ATP 20 μM, 60 min at room temperature; read-out: IC50 for Inhibition of Btk

T1 sequence (Q06187 whole entry): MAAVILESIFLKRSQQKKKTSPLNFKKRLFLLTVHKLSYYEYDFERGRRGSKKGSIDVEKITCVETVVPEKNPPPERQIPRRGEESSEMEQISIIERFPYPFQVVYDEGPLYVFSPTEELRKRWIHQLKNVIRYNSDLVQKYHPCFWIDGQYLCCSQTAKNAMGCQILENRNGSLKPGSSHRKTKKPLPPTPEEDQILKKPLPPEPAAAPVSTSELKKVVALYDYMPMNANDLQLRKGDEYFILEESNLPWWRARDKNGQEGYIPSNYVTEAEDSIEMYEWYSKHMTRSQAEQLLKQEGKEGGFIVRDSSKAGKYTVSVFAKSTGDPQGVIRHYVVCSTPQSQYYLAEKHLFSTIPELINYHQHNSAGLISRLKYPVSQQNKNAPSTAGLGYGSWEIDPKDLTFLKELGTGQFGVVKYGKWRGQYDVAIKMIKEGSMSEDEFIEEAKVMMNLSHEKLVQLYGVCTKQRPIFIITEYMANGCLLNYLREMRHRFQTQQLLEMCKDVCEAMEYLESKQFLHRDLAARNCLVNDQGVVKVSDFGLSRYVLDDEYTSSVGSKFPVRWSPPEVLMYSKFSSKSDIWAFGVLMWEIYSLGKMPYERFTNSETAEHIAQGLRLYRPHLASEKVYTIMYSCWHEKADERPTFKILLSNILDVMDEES

IC50 [nM] | Structure (SMILES)
1.4 | Cc1ccc2c(c1)C(=O)N(c1cccc(-c3ccc(C(N)=O)c4[nH]c5cc(C(COC(=O)C(C)N)OC(=O)C(C)N)ccc5c34)c1C)C2 (stereo not shown) [Example 83-3, 1-(8-carbamoyl-5-(2-methyl-3-(6-methyl-1-oxoisoindolin-2-yl)phenyl)-9H-carbazol-2-yl)ethane-1,2-diylbis(2-aminopropanoate)]
2 | Cc1c(-c2ccc(C(N)=O)c3[nH]c4cc(CNC(=O)CO)ccc4c23)cccc1N1Cc2ccccc2C1=O [Example 34-2, 7-((2-hydroxyacetamido)methyl)-4-(2-methyl-3-(1-oxoisoindolin-2-yl)phenyl)-9H-carbazole-1-carboxamide]
2.2 | Cc1c(-c2ccc(C(N)=O)c3[nH]c4cc(NCC(O)CO)ccc4c23)cccc1N1Cc2ccccc2C1=O (stereo not shown) [Example 67-1, 7-(2,3-dihydroxypropylamino)-4-(2-methyl-3-(1-oxoisoindolin-2-yl)phenyl)-9H-carbazole-1-carboxamide]
1.9 | Cc1c(NC(=O)c2nccs2)cccc1-c1ccc(C(N)=O)c2[nH]c3cc(N4CCN(C)CC4)ccc3c12 [Example 77-2, N-(3-(1-carbamoyl-7-(4-methylpiperazin-1-yl)-9H-carbazol-4-yl)-2-methylphenyl)thiazole-2-carboxamide]
1.9 | Cc1c(-c2ccc(C(N)=O)c3[nH]c4cc(C(C)(C)O)ccc4c23)cccc1-n1ccn2c(C)cnc2c1=O [Example 81-3]
18 | Cc1c(NC(=O)c2nccn2C)cccc1-c1ccc(C(N)=O)c2[nH]c3cc(NC(=O)NC(C)C)ccc3c12 [Example 60-1, 7-(3-isopropylureido)-4-(2-methyl-3-(1-methyl-1H-imidazole-2-carboxamido)phenyl)-9H-carbazole-1-carboxamide]
1.1 | Cc1ccc2c(c1)C(=O)N(c1cccc(-c3ccc(C(N)=O)c4[nH]c5cc(C(O)COC(=O)C(C)N)ccc5c34)c1C)C2 (stereo not shown) [Example 83-4, 2-(8-carbamoyl-5-(2-methyl-3-(6-methyl-1-oxoisoindolin-2-yl)phenyl)-9H-carbazol-2-yl)-2-hydroxyethyl 2-aminopropanoate]
1.5 | Cc1c(-c2ccc(C(N)=O)c3[nH]c4cc(C(O)CO)ccc4c23)cccc1N1Cc2ccc(F)cc2C1=O (stereo not shown) [Example 70-9]
16.9 | Cc1ccc2c(Nc3cccc(-c4ccc(C(N)=O)c5[nH]c6cc(N7CCCC7=O)ccc6c45)c3C)ncnc2c1 [Example 79-2]
2 | Cc1ccc2c(c1)C(=O)N(c1cccc(-c3ccc(C(N)=O)c4[nH]c5cc(N6CCCC6=O)ccc5c34)c1C)C2 [Example 66-16]
2.3 | Cc1c(-c2ccc(C(N)=O)c3[nH]c4cc(C(O)CO)ccc4c23)cccc1N1Cc2ccccc2C1=O (racemic) [Example 70-3, 7-((RS)-1,2-dihydroxyethyl)-4-(2-methyl-3-(1-oxoisoindolin-2-yl)phenyl)-9H-carbazole-1-carboxamide]

Second part, the compound before the results:

Structure (SMILES) | IC50 [nM]
CCNC(=O)c1cc2c(-c3ccc(C(N)=O)c4[nH]c5cc(C(=O)N6CCN(C)CC6)ccc5c34)cccc2[nH]1 [Example 2-24, 4-(2-(ethylcarbamoyl)-1H-indol-4-yl)-7-(4-methylpiperazine-1-carbonyl)-9H-carbazole-1-carboxamide] | 800
Cc1c(NC(=O)C(C)(C)c2ccc(Cl)cc2)cccc1-c1ccc(C(N)=O)c2[nH]c3cc(C(=O)N4CCN(C)CC4)ccc3c12 [Example 5-44] | 16
Cc1c(-c2ccc(C(N)=O)c3[nH]c4cc(C(=O)N5CCN(C)CC5)ccc4c23)cccc1N1CCCS1(=O)=O [Example 12-1, 4-(3-(1,1-dioxoisothiazolidin-2-yl)-2-methylphenyl)-7-(4-methylpiperazine-1-carbonyl)-9H-carbazole-1-carboxamide] | 18
CCOc1ccc(F)c(-c2ccc(C(N)=O)c3[nH]c4cc(C(=O)N5CCN(C)CC5)ccc4c23)c1 [Example 3-39] | 16
CN1CCN(C(=O)c2ccc3c(c2)[nH]c2c(C(N)=O)ccc(N4CCC[C@@H](NC(=O)Nc5nccs5)C4)c23)CC1 [Example 19-1, (R)-7-(4-methylpiperazine-1-carbonyl)-4-(3-(3-thiazol-2-ylureido)piperidin-1-yl)-9H-carbazole-1-carboxamide] | 17
CN1CCN(C(=O)C2CCc3c([nH]c4c(C(N)=O)ccc(Br)c34)C2)CC1 (stereo not shown) [Example 1-3, 5-bromo-2-(4-methylpiperazine-1-carbonyl)-2,3,4,9-tetrahydro-1H-carbazole-8-carboxamide] | 490
Cc1c(-c2ccc(C(N)=O)c3[nH]c4c(c23)CCC(C(=O)NCCCN(C)C)C4)cccc1N1Cc2ccccc2C1=O (stereo not shown) [Example 3-101] | 18
Cc1c(-c2ccc(C(N)=O)c3[nH]c4cc(CN)ccc4c23)cccc1N1Cc2ccccc2C1=O [Example 33-1, 7-(aminomethyl)-4-(2-methyl-3-(1-oxoisoindolin-2-yl)phenyl)-9H-carbazole-1-carboxamide] | 1.9
CN1CCN(C(=O)c2ccc3c(c2)[nH]c2c(C(N)=O)ccc(-c4cccc(-c5ccccc5)c4)c23)CC1 [Example 3-48] | 390
Cc1c(NC(=O)c2cccnc2)cccc1-c1ccc(C(N)=O)c2[nH]c3cc(C(=O)N4CCN(C)CC4)ccc3c12 [Example 5-7] | 18
CC(C)(C)OC(=O)n1cc(-c2ccc(C(N)=O)c3[nH]c4c(c23)CCC(C(=O)NC2CCOCC2)C4)cn1 (stereo not shown) [Example 3-116] | 1600
Cc1nc(NC(=O)c2ccccc2)sc1-c1ccc(C(N)=O)c2[nH]c3c(c12)CCC(C(=O)NC1CCOCC1)C3 (stereo not shown) [Example 5-86] | 910
Cc1c(-c2ccc(C(N)=O)c3[nH]c4c(c23)CCC(C(=O)N2CCN(C)CC2)C4)cccc1N1Cc2ccccc2C1=O (stereo not shown) [Example 3-122] | 18
CN1CCN(C(=O)c2ccc3c(c2)[nH]c2c(C(N)=O)ccc(N4CCC[C@@H](N)C4)c23)CC1 [Example 17-1, (R)-4-(3-aminopiperidin-1-yl)-7-(4-methylpiperazine-1-carbonyl)-9H-carbazole-1-carboxamide] | 1100
CC(=O)Nc1ccc(F)c(-c2ccc(C(N)=O)c3[nH]c4cc(C(=O)N5CCN(C)CC5)ccc4c23)c1 [Example 2-35, 4-(5-acetamido-2-fluorophenyl)-7-(4-methylpiperazine-1-carbonyl)-9H-carbazole-1-carboxamide] | 16
Cc1c(NC(=O)c2nc(C(C)C)cs2)cccc1-c1ccc(C(N)=O)c2[nH]c3cc(C(=O)N4CCN(C)CC4)ccc3c12 [Example 5-16] | 18
Cc1c(NC(=O)Nc2ccccc2)cccc1-c1ccc(C(N)=O)c2[nH]c3cc(C(=O)N4CCN(C)CC4)ccc3c12 [Example 8-3, 4-(2-methyl-3-(3-phenylureido)phenyl)-7-(4-methylpiperazine-1-carbonyl)-9H-carbazole-1-carboxamide] | 16
CN1CCN(C(=O)c2ccc3c(c2)[nH]c2c(C(N)=O)ccc(-c4c[nH]c5cc(-c6ccc(F)cc6)ccc45)c23)CC1 [Example 3-83] | 940
CCOc1ccc2ccccc2c1-c1ccc(C(N)=O)c2[nH]c3cc(C(=O)N4CCN(C)CC4)ccc3c12 [Example 3-18] | 2700
COc1cccc(NC(=O)c2ccc3c(c2)[nH]c2c(C(N)=O)ccc(-c4cccc(NC(=O)c5ccc(F)cc5)c4C)c23)c1 [Example 24-33, 4-(3-(4-fluorobenzamido)-2-methylphenyl)-N^7-(3-methoxyphenyl)-9H-carbazole-1,7-dicarboxamide (prepared as the TFA salt)] | 470
